Paper PMC6017738, “A Comparative Pharmacokinetic Study by UHPLC-MS/MS of Main Active Compounds after Oral Administration of Zushima-Gancao Extract in Normal and Adjuvant-Induced Arthritis Rats” (Molecules : A Journal of Synthetic Chemistry and Natural …, 2018)

Key:
[1] = Pharmacokinetics in adjuvant-induced arthritis (AA) rats after oral administration of Zushima-Gancao extract (UHPLC-MS/MS of plasma); conditions: for change of Cmax in AA rats versus normal rats: p < 0.05
Method: (§1) The plasma concentration–time curves (C-T curves) of nine analytes are presented in Figure 2, and the corresponding pharmacokinetic parameters, including Cmax, Tmax, AUC (0–t), AUC (0–∞) (AUC: area under concentration-time curve), and t1/2, were obtained using DAS 3.0 pharmacokinetic software (Chinese Pharmacological Association, China). Statistical differences between groups were analyzed using Student’s t-tests, and p-values less than 0.05 were considered statistically significant.
(§2) The chromatography experiment was carried out using a UHPLC system (Thermo Fisher, San Jose, CA, USA), equipped with a Hypersil GOLD C18 column (100 mm × 2.1 mm, 3 μm, Thermo Fisher, San Jose, CA, USA) maintained at 35 °C. The mobile phase consisted of 0.05% formic acid in water (Solvent A) and acetonitrile (Solvent B), and the flow rate was 0.3 mL/min. In order to completely separate all the analytes, the 10 min gradient elution program was used as follows: 0–1 min, 10% B; 1–5 min, 10–90% B; 5–6 min, 90–100% B; 6–8 min, 100% B; 8–9 min, 100–10% B; 9–10 min, 10% B, and the sample injection volume was 3 μL.
(§3) Mass spectrometry detection was operated on TSQ Vantage triple-stage quadrupole mass spectrometer (Thermo Fisher, San Jose, CA, USA) equipped with an electrospray ionization (ESI) source. Quantification of the analytes was performed using selective reaction monitor (SRM) in the negative ionization mode. Spray voltage, sheath gas pressure, auxiliary gas pressure, vaporizer temperature, and capillary temperature were set as 3.0 kV, 45 arb, 25 arb, 450 °C, and 350 °C, respectively.
(§4) Male Sprague–Dawley (SD) rats weighing 180–220 g (SCXK-2012-0002) were supplied by Silaike Lab Animals Ltd. (Shanghai, China). They were all kept in a stable condition (temperature, 22 ± 2 °C; relative humidity, 45–60%) with 12 h light/dark cycles for five days before animal experiments.
(§5) Rats were randomly divided into normal and AA groups with six rats in each group. The arthritic model rats were prepared as our previous research [19]. AA rats were intracutaneously injected with 0.1 mL of FAC in the left hind footpad and normal rats were injected with sterile saline. The FAC solution was prepared as follows: bacillus calmette-guerin (BCG) was bathed in water at 80 °C for 30 min, and then dissolved in a liquid paraffin–lanolin mixture (3:2, v/v). Immediately prior to use, the FAC solution were sterilized for 30 min at 120 °C.
(§6) After model construction, the rats were fed for 20 days. All rats were fasted for 12 h before drug administration, with free access to water. Each rat was administered with Zushima-Gancao extract at a single dose of 10 mL/kg. Blood samples (approximately 0.3 mL) were collected into heparinized micro-centrifuge tubes from the postorbital venous plexus veins of rats at specific time points of 0, 0.08, 0.17, 0.33, 0.5, 1, 2, 3, 5, 8, 12, 24, and 36 h. All blood samples were centrifuged immediately at 5000 rpm for 6 min, and the plasma were obtained and stored at −80 °C until analysis.
(§7) A liquid–liquid extraction (LLE) method was applied to extract the compounds from thawed rat plasma samples, aliquots of 100 μL plasma sample were transferred into a 1.5 mL Eppendorf tube, and 10 μL of methanol, 10 μL of hydrochloric acid (2 mol/L), and 10 μL of IS (130 ng/mL) were added separately. The mixture was vortexed for 30 s, and 500 μL of ethyl acetate was added and mixed by vortexing for 10 min. The supernatant (about 450 μL) was transferred into another tube after centrifugation at 16,000 rpm for 10 min and then evaporated to dryness at 45 °C, 15 kPa in a Thermo SPD1010-230 SpeedVac Concentrator (Thermo Fisher, San Jose, CA, USA). The residue was dissolved in 100 μL of initial mobile phase by vortexing for 5 min, and a further centrifugation at 17,000 rpm for 10 min was applied after the residue was re-dissolved. The supernatant was injected into the UHPLC-MS/MS system for analysis.

[2] = Pharmacokinetics in normal rats after oral administration of Zushima-Gancao extract (UHPLC-MS/MS of plasma); assay type: in vivo; conditions: male, Sprague-Dawley, rat, oral Zushima-Gancao extract 10 mL/kg single dose, n = 6, mean ± SD
Method: as §1, §2, §3, §4, §5, §6, §7

[3] = Stability test of analytes in rat plasma (QC samples); assay type: physicochemical; conditions: for 24 h Stability RE: autosampler at 4 °C for 24 h; for Short-Term Stability RE: room temperature for 4 h; for Freeze-Thaw Stability RE: three freeze-thaw cycles; for Long-Term Stability RE: −80 °C for a week
Method: Stability. To evaluate the stability of each component during analysis, QC samples at low, middle, and high concentrations (three samples for each concentration) were tested under different conditions, including placing QC samples in the autosampler at 4 °C for 24 h, at room temperature for 4 h, at −80 °C for a week, and three freeze-thaw cycles.

[4] = AA rats versus normal rats, oral Zushima-Gancao extract
[5] = male, Sprague-Dawley, rat, plasma, po, 10 mL/kg
[6] = male, Sprague-Dawley, rat, in vivo, po, 10 mL/kg

| Compound | AUC(0-inf) [1, 5] | AUC(0-t) [1, 5] | Cmax [1, 5] | Tmax [1, 5] | half-life [1, 5] | AUC(0-inf) [2] | AUC(0-t) [2] | Cmax [2] | Tmax [2] | half-life [2] | 24 h Stability RE ([3]; high concentration) | Short-Term Stability RE ([3]; high concentration) | Freeze-Thaw Stability RE ([3]; high concentration) | Long-Term Stability RE ([3]; high concentration) | 24 h Stability RE ([3]; low concentration) | Short-Term Stability RE ([3]; low concentration) | Long-Term Stability RE ([3]; low concentration) | 24 h Stability RE ([3]; middle concentration) | Short-Term Stability RE ([3]; middle concentration) | Long-Term Stability RE ([3]; middle concentration) | other results |
| --- | --- | --- | --- | --- | --- | --- | --- | --- | --- | --- | --- | --- | --- | --- | --- | --- | --- | --- | --- | --- | --- |
| O=c1ccc2ccc(O)c(O)c2o1 [DPH, daphnetin] | 167 ± 49 ng·h/mL | 165 ± 49.4 ng·h/mL | 201 ± 108 ng/mL | 0.2 ± 0.07 h | 2.06 ± 0.26 h | 256 ± 54.8 ng·h/mL | 246 ± 53.9 ng·h/mL | 214 ± 32.5 ng/mL | 0.24 ± 0.11 h | 3.4 ± 0.96 h | −11.8% | −12.42% | −14.04% | −12.23% | −13.85% | −7.83% | −12.07% | −13.73% | −12.68% | −15% | decrease of AUC (0–∞) compared with the normal group [1, 4]: 34.56%; change of t1/2 in AA rats versus normal rats ([1]; AA versus normal rats): remarkable decrease; Freeze-Thaw Stability RE ([3]; low concentration): −6.29%; Freeze-Thaw Stability RE ([3]; middle concentration): −8.25% |
| COc1cc2cc(Oc3ccc4ccc(=O)oc4c3)c(=O)oc2cc1O [DR, daphnoretin] | 154 ± 79.8 ng·h/mL | 86.2 ± 33.8 ng·h/mL | 7.06 ± 3.82 ng/mL | 0.42 ± 0.31 h | 28.3 ± 9.39 h | 163 ± 78.7 ng·h/mL | 131 ± 58.1 ng·h/mL | 14.4 ± 3.31 ng/mL | 0.39 ± 0.31 h | 14.5 ± 2.91 h | −6.11% | −5.38% | −9.71% | −13.85% | −11.79% | −13.63% | −12.79% | −11.33% | −13.99% | −14.41% | change of Cmax in AA rats versus normal rats ([1]; AA versus normal rats): decreased remarkably; Freeze-Thaw Stability RE ([3]; low concentration): 0.05%; Freeze-Thaw Stability RE ([3]; middle concentration): −14.22% |
| CC1(C)[C@@H](O)CC[C@]2(C)[C@H]3C(=O)C=C4[C@@H]5C[C@@](C)(C(=O)O)CC[C@]5(C)CC[C@@]4(C)[C@]3(C)CC[C@@H]12 [GA, glycyrrhetinic acid] | 4330 ± 1860 ng·h/mL | 4260 ± 1860 ng·h/mL | 418 ± 296 ng/mL | 9.33 ± 2.07 h | 4.94 ± 2.43 h | 1960 ± 1260 ng·h/mL | 1940 ± 1240 ng·h/mL | 167 ± 93 ng/mL | 8.67 ± 1.63 h | 3.88 ± 1.29 h | 14.35% | 13.05% |  | 9.57% | 13.49% | 2.08% | 0.04% | 14.1% | −3.38% | 5.44% | increase of AUC (0–∞) in model rats compared to normal rats [1, 4]: 2.2 fold; increase of AUC(0–t) in model rats compared to normal rats [1, 4]: 2.2 fold |
| CC1(C)[C@@H](O[C@H]2O[C@H](C(=O)O)[C@@H](O)[C@H](O)[C@H]2O[C@@H]2O[C@H](C(=O)O)[C@@H](O)[C@H](O)[C@H]2O)CC[C@]2(C)[C@H]3C(=O)C=C4[C@@H]5C[C@@](C)(C(=O)O)CC[C@]5(C)CC[C@@]4(C)[C@]3(C)CC[C@@H]12 [GL, glycyrrhizin] | 187 ± 64.6 ng·h/mL | 184 ± 61.7 ng·h/mL | 24.9 ± 7.81 ng/mL | 4.83 ± 2.64 h | 4.88 ± 3.04 h | 267 ± 49.7 ng·h/mL | 248 ± 47.8 ng·h/mL | 29 ± 10.5 ng/mL | 0.58 ± 0.35 h | 8.72 ± 4.81 h | 13.22% | 13.85% | 14.36% | 9.2% | 11.79% | 10.26% | 11.48% | 11.8% | 10.68% | 9.96% | decrease of AUC (0–∞) compared with the normal group [1, 4]: 29.89%; change of Tmax in AA rats versus normal rats ([1]; AA versus normal rats): obvious increase; Freeze-Thaw Stability RE ([3]; low concentration): 10.89%; Freeze-Thaw Stability RE ([3]; middle concentration): 14.3% |
| O=c1ccc2ccc(O)cc2o1 [HDC, 7-hydroxycoumarin] | 131 ± 29.1 ng·h/mL | 127 ± 26.8 ng·h/mL | 179 ± 98 ng/mL | 0.22 ± 0.08 h | 2.52 ± 1.82 h | 148 ± 24.9 ng·h/mL | 142 ± 24.4 ng·h/mL | 193 ± 29.3 ng/mL | 0.22 ± 0.08 h | 2.86 ± 1.94 h | 1.39% | 3.09% | 2.64% | −0.05% | −1.43% | −13.86% | −10.07% | −0.85% | −5.72% | −1.8% | Freeze-Thaw Stability RE ([3]; low concentration): −13.48%; Freeze-Thaw Stability RE ([3]; middle concentration): −1.27% |
| O=C(/C=C/c1ccc(O)cc1)c1ccc(O)cc1O [ILG, isoliquiritigenin] | 8.48 ± 3.04 ng·h/mL | 8.25 ± 2.9 ng·h/mL | 1.92 ± 0.55 ng/mL | 3.7 ± 2.1 h | 1.39 ± 0.65 h | 12.4 ± 6.97 ng·h/mL | 8.89 ± 3.12 ng·h/mL | 2.77 ± 0.83 ng/mL | 0.14 ± 0.05 h | 1.08 ± 0.67 h | 10.13% | 12.09% | 7.59% | 13.23% | 8.75% | −3.23% | −11.29% | 10.08% | 11.76% | 12.68% | change of Tmax in AA rats versus normal rats ([1]; AA versus normal rats): obvious increase; Freeze-Thaw Stability RE ([3]; low concentration): 2.53%; Freeze-Thaw Stability RE ([3]; middle concentration): 12.3% |
| O=C(/C=C/c1ccc(O[C@@H]2O[C@H](CO)[C@@H](O)[C@H](O)[C@H]2O)cc1)c1ccc(O)cc1O [ILQ, isoliquiritin] |  |  |  |  |  | 6.74 ± 0.6 ng·h/mL | 6.72 ± 0.6 ng·h/mL | 8.92 ± 1.68 ng/mL | 0.17 ± 0.09 h | 0.52 ± 0.2 h | 6.64% | 3.29% | 4.51% | 2.66% | 4.99% | 9.08% | 7.49% | 5.33% | 12.35% | 5.37% | decrease of AUC (0–∞) compared with the normal group [1, 4]: 39.02%; Tmax ([1]; AA rats, oral Zushima-Gancao extract 10 mL/kg single dose, plasma, n = 6, mean ± SD): 0.36 ± 0.13 h; change of Tmax in AA rats versus normal rats ([1]; AA versus normal rats): obvious increase; change of Cmax in AA rats versus normal rats ([1]; AA versus normal rats): decreased remarkably; AUC(0-inf) [1, 6]: 4.11 ± 1.12 ng·h/mL; AUC(0-t) [1, 6]: 4.04 ± 1.2 ng·h/mL; Cmax [1, 6]: 4.63 ± 3.64 ng/mL; half-life [1, 6]: 0.94 ± 0.83 h; Freeze-Thaw Stability RE ([3]; low concentration): −2.51%; Freeze-Thaw Stability RE ([3]; middle concentration): −6.3% |
| O=C1C[C@@H](c2ccc(O)cc2)Oc2cc(O)ccc21 [LG, liquiritigenin] | 194 ± 84.4 ng·h/mL | 193 ± 83.2 ng·h/mL | 29.7 ± 10.7 ng/mL | 4.7 ± 2.52 h | 2.3 ± 0.95 h | 170 ± 62.5 ng·h/mL | 169 ± 62.4 ng·h/mL | 23.9 ± 3.72 ng/mL | 3.86 ± 1.98 h | 1.66 ± 0.44 h | 8.56% | 1.5% | 6.75% | 3.89% | 6.72% | 9.76% | 2.87% | 8.15% | 11.16% | 0.58% | Freeze-Thaw Stability RE ([3]; low concentration): 7.22%; Freeze-Thaw Stability RE ([3]; middle concentration): 7.96% |
| O=C1C[C@@H](c2ccc(O[C@@H]3O[C@H](CO)[C@@H](O)[C@H](O)[C@H]3O)cc2)Oc2cc(O)ccc21 [LQ, liquiritin] | 34.4 ± 8.89 ng·h/mL | 33.1 ± 6.8 ng·h/mL | 30.1 ± 13.8 ng/mL | 0.21 ± 0.1 h | 0.75 ± 0.65 h | 45.5 ± 3.9 ng·h/mL | 45.5 ± 3.89 ng·h/mL | 58.8 ± 12.5 ng/mL |  | 0.47 ± 0.15 h | 4.89% | 5.23% | 7.92% | 7.57% | 2.03% | −9.95% | 8.14% | 3.31% | 0.14% | −0.13% | decrease of AUC (0–∞) compared with the normal group [1, 4]: 24.57%; change of Cmax in AA rats versus normal rats ([1]; AA versus normal rats): decreased remarkably; Freeze-Thaw Stability RE ([3]; low concentration): 13.76%; Freeze-Thaw Stability RE ([3]; middle concentration): −5.95% |
